Source: US8871929B2, “Fused-imidazoyl compounds useful as antimicrobial agents” (Merck Sharp & Dohme Corp., priority 2010, dated 2014)
In brackets after ≈: the same amount, converted by molar mass.

Test system: Staphylococcus aureus ATCC29213
Test: Susceptibility testing (MIC determination), broth microdilution
Format: cell-based
Conditions: Mueller Hinton broth, 96-well plate, overnight incubation at 35° C., read-out: MIC Staph. aureus ATCC-29213
Experimental: Compounds useful in the method of the invention were investigated for their utility as antimicrobial agents in the following assay. Susceptibility testing (MIC determinations) was performed using the standard broth microdilution methodology precisely as described in the Clinical Laboratory Standards Institute Document M7-A6; Methods for Dilution Antimicrobial Susceptibility Tests for Bacteria That Grow Aerobically; […] To perform the test, a series of 0.1 ml media in a 96-well plate is prepared with Mueller Hinton broth to which various concentrations of the test compound are added. The media are then inoculated with a standardized suspension of the test organism, Staphylococcus aureus ATCC29213. After overnight incubation at 35° C., the tests are examined and the minimal inhibitory concentration (MIC) is determined. MIC is defined as the lowest concentration of an antimicrobial agent that prevents visible growth of a microorganism in the broth microdilution susceptibility test

MIC: 0.125 µg/mL (≈ 0.2 µM)
SMILES: COC(=O)c1ccn2c(NCC(=O)N3CCN(c4c(Cl)cncc4Cl)CC3)c(-c3ccc(N4CCOCC4)cc3)nc2c1 [Compound 84]
